Literature values as cited in publication PMC5731934, “Modifying glycyrrhetinic acid liposomes with liver-targeting ligand of galactosylated derivative: preparation and evaluations” (Oncotarget, 2017).

Set-up: method as in PMID 11752037

## CC1(C)[C@@H](O)CC[C@]2(C)[C@H]3C(=O)C=C4[C@@H]5C[C@@](C)(C(=O)O)CC[C@]5(C)CC[C@@]4(C)[C@]3(C)CC[C@@H]12 [GA, Glycyrrhetinic acid]
  solubility in water: < 0.01 mg/mL
